In the experiment the test system is P388 leukemia ip, CD2F1 mice, survival T/C. Kind of experiment: NCI In Vivo Anticancer Drug Screen. Data for tumor model P388 Leukemia (intraperitoneal) in CD2F1 (CDF1) mice. Conditions: endpoint: median survival time, higher = longer survival. In outline:
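Mice carrying the transplanted tumor received test compound or vehicle. Survival was recorded in each group, and the value is the treated-group measurement divided by that of the vehicle-treated control group.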

Where [1] appears, read: dose: 50.0 mg/kg/injection, schedule: Q01DX009 (ip), vehicle: saline.
[2] abbreviates: dose: 100.0 mg/kg/injection, schedule: Q01DX009 (ip), vehicle: saline.
[3] abbreviates: dose: 200.0 mg/kg/injection, schedule: Q01DX009 (ip), vehicle: saline.
Where [4] appears, read: dose: 12.5 mg/kg/injection, schedule: Q01DX005 (ip), vehicle: Klucel (hydroxypropylcellulose) (HPC).
Where [5] appears, read: dose: 25.0 mg/kg/injection, schedule: Q01DX005 (ip), vehicle: Klucel (hydroxypropylcellulose) (HPC).
[6] abbreviates: dose: 50.0 mg/kg/injection, schedule: Q01DX005 (ip), vehicle: Klucel (hydroxypropylcellulose) (HPC).
Where [7] appears, read: dose: 100.0 mg/kg/injection, schedule: Q01DX005 (ip), vehicle: Klucel (hydroxypropylcellulose) (HPC).
[8] abbreviates: dose: 50.0 mg/kg/injection, schedule: Q01DX005 (ip), vehicle: saline with Tween-80.
Where [9] appears, read: dose: 100.0 mg/kg/injection, schedule: Q01DX005 (ip), vehicle: saline with Tween-80.
Setting [10] is: dose: 200.0 mg/kg/injection, schedule: Q01DX005 (ip), vehicle: saline with Tween-80.
[11] abbreviates: dose: 50.0 mg/kg/injection, schedule: Q01DX009 (ip), vehicle: saline with Tween-80.
Where [12] appears, read: dose: 100.0 mg/kg/injection, schedule: Q01DX009 (ip), vehicle: saline with Tween-80.
Setting [13] is: dose: 200.0 mg/kg/injection, schedule: Q01DX009 (ip), vehicle: saline with Tween-80.
Where [14] appears, read: dose: 400.0 mg/kg/injection, schedule: Q01DX001 (ip), vehicle: Klucel (hydroxypropylcellulose) (HPC).

Values joined by “and” are separate entries in the source; they are usually repeats but may differ in a detail not shown here. Identical values can stand only once. Inconclusive results and toxic doses are left out.

As for `O=C(N/N=C/c1cc(Cl)cc(Cl)c1[O-])c1ccccc1.O=C(N/N=C/c1cc(Cl)cc(Cl)c1[O-])c1ccccc1.[Fe+2]`, the T/C was 98 % of control (dose: 100.0 mg/kg/injection, schedule: Q04DX002 (ip), vehicle: saline with Tween-80); 103 % of control (dose: 200.0 mg/kg/injection, schedule: Q04DX002 (ip), vehicle: saline with Tween-80); 100 % of control (dose: 400.0 mg/kg/injection, schedule: Q04DX002 (ip), vehicle: saline with Tween-80).

For `CC1OC2COC(C)OC2C(C2CN2)O1` (centres undefined), the T/C is 110 % of control under setting [1], 100 % of control under setting [2] and 117 % of control under setting [3].

For the compound `C1=C2COCOC3CCN(C1)C23` (centres undefined), the T/C is, setting by setting: (dose: 34.32 mg/kg/injection, schedule: Q01DX005 (ip), vehicle: saline) 101 % of control; (dose: 68.64 mg/kg/injection, schedule: Q01DX005 (ip), vehicle: saline) 107 % of control; (dose: 137.28 mg/kg/injection, schedule: Q01DX005 (ip), vehicle: saline) 108 % of control.

`c1ccc2c(Nc3ccc4c(c3)OCO4)c3c(nc2c1)CCCC3`: the T/C was 102 % of control under setting [4]; 101 % of control under setting [5]; 100 % of control and 112 % of control under setting [6].

Take `NC(=O)Nc1cc2[nH]c(=O)oc2cc1Cl`: the T/C under setting [4] is 100 % of control, the T/C under setting [5] was 102 % of control, the T/C under setting [6] was 88 % of control and the T/C under setting [7] was 92 % of control.

With `CCNC1=C(C(=O)OCC)C(=O)CO1`, the T/C by setting is: (dose: 60.0 mg/kg/injection, schedule: Q01DX005 (ip), vehicle: saline with Tween-80) 100 % of control; (dose: 120.0 mg/kg/injection, schedule: Q01DX005 (ip), vehicle: saline with Tween-80) 100 % of control; (dose: 240.0 mg/kg/injection, schedule: Q01DX005 (ip), vehicle: saline with Tween-80) 99 % of control.

As for `O=C(O)CCCCCCCCC#CC#CCO`, the T/C under setting [8] is 101 % of control, the T/C under setting [9] is 99 % of control and the T/C under setting [10] is 95 % of control.

For the compound `CC(=O)c1cc2ccccc2c2ccccc12`, the T/C was 98 % of control under setting [8], 98 % of control under setting [9] and 96 % of control under setting [10].

For `NNC1=Nc2cc3c(cc2C(=O)N2C[C@H](O)CC12)OCO3` (some centres undefined), the T/C reads like this: (dose: 100.0 mg/kg/injection, schedule: Q01DX001 (ip), vehicle: saline with Tween-80) 100 % of control; (dose: 200.0 mg/kg/injection, schedule: Q01DX001 (ip), vehicle: saline with Tween-80) 100 % of control; (dose: 400.0 mg/kg/injection, schedule: Q01DX001 (ip), vehicle: saline with Tween-80) 99 % of control.

As for `C=C/[Se](=C(/C#N)C(=O)c1ccccc1)c1ccccc1` (centres undefined), the T/C is, setting by setting: (dose: 6.25 mg/kg/injection, schedule: Q01DX009 (ip), vehicle: saline) 99 % of control; (dose: 12.5 mg/kg/injection, schedule: Q01DX009 (ip), vehicle: saline) 99 % of control; (dose: 25.0 mg/kg/injection, schedule: Q01DX009 (ip), vehicle: saline) 89 % of control.

Consider `c1ccc2c(c1)Nc1c(ccc3ccccc13)S2`, for which the T/C is, setting by setting: under setting [11], 95 % of control; under setting [1], 102 % of control; under setting [12], 112 % of control; under setting [2], 98 % of control; under setting [13], 113 % of control; under setting [3], 109 % of control. Further, the T/C (dose: 400.0 mg/kg/injection, schedule: Q01DX009 (ip), vehicle: saline with Tween-80) was 113 % of control and the T/C (dose: 400.0 mg/kg/injection, schedule: Q01DX009 (ip), vehicle: saline) was 100 % of control.

With `CSc1cccc(NC(=O)Oc2ccc([N+](=O)[O-])cc2Cl)c1`, the T/C is 100 % of control (dose: 6.25 mg/kg/injection, schedule: Q01DX009 (ip), vehicle: DMSO) and 93 % of control (dose: 12.5 mg/kg/injection, schedule: Q01DX009 (ip), vehicle: DMSO).

With `O=S(=O)(n1ccnc1)C(F)(F)F`, the T/C by setting is: (dose: 12.5 mg/kg/injection, schedule: Q01DX001 (ip), vehicle: saline) 101 % of control; (dose: 25.0 mg/kg/injection, schedule: Q01DX001 (ip), vehicle: saline) 96 % of control; (dose: 50.0 mg/kg/injection, schedule: Q01DX001 (ip), vehicle: saline) 96 % of control.

Regarding `Cc1ccc(S(=O)(=O)CC(=O)CC(=O)C(C#N)c2cccc(Cl)c2)cc1` (centres undefined), the T/C is, setting by setting: under setting [8], 100 % of control; under setting [9], 99 % of control; under setting [10], 107 % of control.

`C=CCC(NC(=O)CC)C(=O)O` (centres undefined): the T/C under setting [1] is 92 % of control, the T/C under setting [2] is 92 % of control and the T/C under setting [3] is 103 % of control.

For `NC(=S)c1ccc(N=Cc2ccco2)cc1`, the T/C was 102 % of control (dose: 100.0 mg/kg/injection, schedule: Q01DX001 (ip), vehicle: Klucel (hydroxypropylcellulose) (HPC)); 104 % of control (dose: 200.0 mg/kg/injection, schedule: Q01DX001 (ip), vehicle: Klucel (hydroxypropylcellulose) (HPC)); 105 % of control under setting [14].

As for `O=C1c2ccccc2C(=C(c2ccccc2)c2ccccc2)c2ccccc21`, the T/C reads like this: under setting [6], 89 % of control; under setting [7], 88 % of control; (dose: 200.0 mg/kg/injection, schedule: Q01DX005 (ip), vehicle: Klucel (hydroxypropylcellulose) (HPC)) 86 % of control.

As for `NS(=O)(=O)c1ncnc2nc[nH]c12`, the T/C runs as follows: (dose: 10.0 mg/kg/injection, schedule: Q01DX009 (ip), vehicle: saline with Tween-80) 112 % of control; (dose: 15.0 mg/kg/injection, schedule: Q01DX009 (ip), vehicle: saline with Tween-80) 112 % of control; (dose: 30.0 mg/kg/injection, schedule: Q01DX009 (ip), vehicle: saline with Tween-80) 90 % of control; (dose: 60.0 mg/kg/injection, schedule: Q01DX009 (ip), vehicle: saline with Tween-80) 104 % of control.

For `COc1ccc([N+](=O)[O-])cc1NOC(C)=O`, the T/C reads like this: (dose: 100.0 mg/kg/injection, schedule: Q04DX003 (ip), vehicle: Klucel (hydroxypropylcellulose) (HPC)) 111 % of control; (dose: 200.0 mg/kg/injection, schedule: Q04DX003 (ip), vehicle: Klucel (hydroxypropylcellulose) (HPC)) 119 % of control; (dose: 400.0 mg/kg/injection, schedule: Q04DX003 (ip), vehicle: Klucel (hydroxypropylcellulose) (HPC)) 94 % of control.

Regarding `CC(C)c1cc(C(C)C)c(S(=O)(=O)ON)c(C(C)C)c1`, the T/C is, setting by setting: (dose: 100.0 mg/kg/injection, schedule: Q04DX002 (ip), vehicle: saline) 112 % of control; (dose: 200.0 mg/kg/injection, schedule: Q04DX002 (ip), vehicle: saline) 99 % of control.

As for `S=c1[nH]c2ccccc2n2cccc12`, the T/C (dose: 50.0 mg/kg/injection, schedule: Q01DX009 (ip), vehicle: Klucel (hydroxypropylcellulose) (HPC)) is 108 % of control; the T/C (dose: 100.0 mg/kg/injection, schedule: Q01DX009 (ip), vehicle: Klucel (hydroxypropylcellulose) (HPC)) is 108 % of control; the T/C (dose: 200.0 mg/kg/injection, schedule: Q01DX009 (ip), vehicle: Klucel (hydroxypropylcellulose) (HPC)) was 106 % of control.

Take `Cc1ccc([N+](=O)[O-])cc1NC(=O)Oc1cc(C)c(Br)c(C)c1`: the T/C runs as follows: under setting [11], 106 % of control; under setting [12], 106 % of control; under setting [13], 112 % of control.

On to `CN=C(N)c1ccc(N=C(N)c2ccc(C(N)=Nc3ccc(C(N)=NC)cc3)cc2)cc1`, for which the T/C reads like this: (dose: 1.3 mg/kg/injection, schedule: Q01DX005 (iv), vehicle: saline) 100 % of control; (dose: 5.0 mg/kg/injection, schedule: Q04DX003 (ip), vehicle: saline) 100 % of control; (dose: 6.48 mg/kg/injection, schedule: Q04DX002 (ip), vehicle: saline) 92 % of control; (dose: 10.0 mg/kg/injection, schedule: Q04DX003 (ip), vehicle: saline) 100 % of control; (dose: 10.8 mg/kg/injection, schedule: Q01DX005 (ip), vehicle: water) 120 % of control; (dose: 20.0 mg/kg/injection, schedule: Q01DX009 (ip), vehicle: saline) 172 % of control. Under “dose: 30.0 mg/kg/injection, schedule: Q01DX005 (ip), vehicle: saline”, the T/C was 163 % of control.

In the case of `S=C(N\N=C/C(/C=C/c1ccccc1)=N\NC(=S)Nc1ccc(Cl)cc1)Nc1ccc(Cl)cc1`, under setting [14], the T/C was 88 % of control.

These data come from PubChem BioAssay AID330 (DTP/NCI, 2004).
